Tests used:
[1] = target: T1, human macrophage elastase (HME/hMMP-12) (Homo sapiens, UniProt P39900); experiment: In vitro HME inhibition test (standard or high-sensitivity); assay type: biochemical; settings: in some cases mean values, rounded to two significant figures
T1 construct: purchased R&D Systems 917-MP
Method in brief: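 Autoactivated HME (0.5 nM; high-sensitivity format 0.05 nM, ~16 h) with 5 μM quenched Mca-PLGLEEA-Dap(Dnp)-NH2 substrate in HEPES pH 7.4, NaCl, CaCl2, ZnCl2, EDTA, Brij buffer, 2 h at 37° C. Fluorescence at ex 323/em 393 nm; IC50 from signal versus concentration.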

rat hepatocytes = experiment: Hepatocyte assay for determination of metabolic stability; assay type: in vitro ADME; settings: after incubation with rat hepatocytes
Description: The metabolic stability of test compounds towards hepatocytes is determined by incubating the compounds at low concentrations (preferably below or around 1 μM) and at low cell counts (preferably at 1*10^6 cells/ml) in order to ensure maximum linearity of kinetic conditions in the experiment. Seven samples from the incubation solution are taken for the LC-MS analysis within a fixed time pattern, in order to determine the half-life (i.e. the degradation) of the particular compound. This half-life is used to calculate various “Clearance” parameters (CL) and “Fmax” values (see below).
The CL and Fmax values are a measure of the phase 1 and phase 2 metabolism of the compounds in the hepatocytes. In order to minimize the influence of the organic solvent on the enzymes in the incubation batches, the concentration thereof is generally limited to 1% (acetonitrile) or 0.1% (DMSO).
For all species and breeds, a hepatocyte cell count in the liver of 1.1*10^8 cells/g of liver is expected.

T1 sequence (P39900 106-470): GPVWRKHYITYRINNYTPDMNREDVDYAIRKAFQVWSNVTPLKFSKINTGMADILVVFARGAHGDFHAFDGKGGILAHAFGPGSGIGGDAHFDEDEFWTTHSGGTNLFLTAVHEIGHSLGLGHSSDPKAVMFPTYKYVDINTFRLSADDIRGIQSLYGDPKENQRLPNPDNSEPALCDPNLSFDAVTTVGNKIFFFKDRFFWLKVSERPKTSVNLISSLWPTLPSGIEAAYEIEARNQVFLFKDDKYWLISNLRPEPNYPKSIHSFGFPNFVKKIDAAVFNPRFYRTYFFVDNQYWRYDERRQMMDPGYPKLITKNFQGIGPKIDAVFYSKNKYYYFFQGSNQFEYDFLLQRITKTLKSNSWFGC

| SMILES | IC50 [1] [nM] | CLblood (calculated blood clearance, well-stirred) (rat hepatocytes) [L/h/kg] | Fmax (maximum possible bioavailability after oral administration, well-stirred) (rat hepatocytes) [%] |
| --- | --- | --- | --- |
| O=C(CC(CCn1nnc2ccccc2c1=O)C(=O)O)c1coc2cc(OCc3ccc(Cl)c(Cl)c3)ccc12 (single isomer, unassigned) [Example 94, 4-{6-[(3,4-Dichlorobenzyl)oxy]-1-benzofur-3-yl}-4-oxo-2-[2-(4-oxo-1,2,3-benzotriazin-3(4H)-yl)ethyl]butanoic acid] | 0.82 | 1.55 | 63.2 |
| O=C(CC(CCn1nnc2ccc(C(F)(F)F)cc2c1=O)C(=O)O)c1cc2ccc(OCC3CC3)cc2s1 (single isomer, unassigned; enantiomer 2) [Example 130, 4-[6-(Cyclopropylmethoxy)-1-benzothiophen-2-yl]-4-oxo-2-{2-[4-oxo-6-(trifluoromethyl)-1,2,3-benzotriazin-3(4H)-yl]ethyl}butanoic acid (enantiomer 2)] | 0.12 | 2.09 | 50.3 |
| NC(=O)c1cccc(COc2ccc3oc(C(=O)CC(CCn4nnc5ccccc5c4=O)C(=O)O)cc3c2)c1 (racemic) [Example 32, (+/−)-4-{5-[(3-Carbamoylbenzyl)oxy]-1-benzofur-2-yl}-4-oxo-2-[2-(4-oxo-1,2,3-benzotriazin-3(4H)-yl)ethyl]butanoic acid] | 0.68 | 1.32 | 68.5 |
| CS(=O)(=O)c1ccc(COc2ccc3oc(C(=O)CC(CCn4nnc5ccccc5c4=O)C(=O)O)cc3c2)cc1 (racemic) [Example 38, (+/−)-4-(5-{[4-(Methylsulphonyl)benzyl]oxy}-1-benzofur-2-yl)-4-oxo-2-[2-(4-oxo-1,2,3-benzotriazin-3(4H)-yl)ethyl]butanoic acid] | 0.72 | 0.75 | 82.1 |
| O=C(C[C@@H](CCn1nnc2ccccc2c1=O)C(=O)O)c1noc2cc(OCC3CCOCC3)ccc12 (single isomer, unassigned; enantiomer 1) [Example 134] | 24 | 1.18 | 71.8 |
| CCCCCOc1ccc2cc(C(=O)CC(CCn3nnc4ccccc4c3=O)C(=O)O)oc2c1 (single isomer, unassigned; (+)) [Example 57, (+)-4-Oxo-2-[2-(4-oxo-1,2,3-benzotriazin-3(4H)-yl)ethyl]-4-[6-(pentyloxy)-1-benzofur-2-yl]butanoic acid] | 2.1 | 2.14 | 48.9 |
